Laboratory results published in patent US5639439A, “Gallium dimercaptosuccinate as a novel tumor imaging agent” (Institute of Nuclear Energy Research, Taiwan, priority 1994, dated 1997).

What was measured:
glioblastoma (GBM) = assay: Animal biodistribution in glioblastoma (GBM) tumor-bearing athymic nude mice; assay type: in vivo; details: 2 hr. postinjection, tail vein
Procedure: The six-week old athymic nude mice were obtained from the Experiment Animal Center, Tri-service General Hospital, Taipei, Taiwan. The viable cultured cells, glioblastoma (GBM), were implanted in the upper back leg by intradermal injection. The tissue biodistribution of gallium-67 dimercaptosuccinate was determined following injection (0.15 to 0.2 ml) into tail vein of ketamine anesthetized in tumor-bearing mice. The reanesthetized animals were sacrificed immediately thereafter by decapitation at given time intervals. The organs of interest were subsequently excised, blotted with tissue paper, weighed and the radioactivity was measured. The tissue distribution of gallium-67 dimercaptosuccinate and gallium-67 chloride in tumor-bearing mice are shown in FIG. 1 at 2 hr. postinjection, as much as 7.8% and 1.1% were in GBM and gallium-67 chloride respectively.

tumor = assay: Gamma camera imaging of tumor-bearing mice; assay type: in vivo, athymic nude mice; details: gamma images at 5 min and 15 min
Procedure: FIG. 2 is a photograph showing the position of tumors in the body of athymic nude mice imaged […] after injection with gallium-67 dimercaptosuccinate.
Imaging was performed using the Elscint gamma camera with medium energy collimator, and a SIMIS-IV nuclear medicine computer for data processing.

Row | Compound | tissue distribution in GBM (glioblastoma (GBM)) [%] | in vivo stability (tumor)
1 | [Cl][Ga]([Cl])[Cl] [gallium-67 chloride, reference compound] | 1.1 | 
2 | gallium-67 dimercaptosuccinate | 7.8 | stable in vivo
